In patent US20120309798A1, “Tumour Treatment Agents and Method” (Vivolux AB, priority 2009, published 2012):

These compounds were tested on solid and hematological patient tumor samples (assay: Relative effect on solid and hematological tumor samples (S/H ratio), FMCA). Details: n=98 patient samples; FIG. 2b.
Format: cell-based, human
From the text: (§1) Cell culture. Patient tumor samples (98) and preparations (4) of normal peripheral blood mononuclear cells (PBMC), detailed in Table 1, were used to determine the activity of VLX50 and, for comparison, six other cytotoxic drugs chosen to represent different mechanistic classes.
The tumor samples were obtained by bone marrow/peripheral blood sampling, routine surgery or diagnostic biopsy. Leukemic cells and PBMCs were isolated by 1.077 g ml-1 Ficoll-Paque centrifugation (Larsson et al., 1992). Tumor tissue from solid tumor samples was minced into small pieces and tumor cells were isolated by collagenase dispersion followed by Percoll density gradient centrifugation (Csoka et al., 1994). […] Cell viability was determined by trypan blue exclusion test and the proportion of tumor cells in the preparation was judged by inspection of May-Grunvald-Giemsa stained cytospin slides (FIG. 1a). […]
Fluorometric Microculture Cytotoxicity Assay. The Fluorometric Microculture Cytotoxicity Assay, FMCA, described in detail previously (Lindhagen et al., 2008), is based on measurement of fluorescence generated from hydrolysis of fluorescein diacetate (FDA) to fluorescein by cells with intact plasma membranes. […] Quality criteria for a successful assay included a mean coefficient of variation of less than 30% in the control and a fluorescence signal in control wells of more than 5 times the blank. […]
In the case of `N.N.[Cl][Pt][Cl]` [cisplatin, reference compound], the “S/H ratio (ratio between total response rates for solid and hematological samples)” value is reported as 1.2.

These compounds were tested on cells from CLL and normal PBMC (assay: Tumor cell specificity: drug effect in CLL cells versus normal PBMC, FMCA). Details: PBMC n=4, CLL n=9; t-test, p<0.05; FIG. 2c.
Format: cell-based, human
From the text: as §1
The tumor samples were obtained by bone marrow/peripheral blood sampling, routine surgery or diagnostic biopsy. Leukemic cells and PBMCs were isolated by 1.077 g ml-1 Ficoll-Paque centrifugation (Larsson et al., 1992). Tumor tissue from solid tumor samples was minced into small pieces and tumor cells were isolated by collagenase dispersion followed by Percoll density gradient centrifugation (Csoka et al., 1994). The sampling of primary tumor cells was approved by the local ethics committee at Uppsala University Hospital. Cell viability was determined by trypan blue exclusion test and the proportion of tumor cells in the preparation was judged by inspection of May-Grunvald-Giemsa stained cytospin slides (FIG. 1a). All samples used in this study contained more than 70% tumor cells.
Fluorometric Microculture Cytotoxicity Assay. The Fluorometric Microculture Cytotoxicity Assay, FMCA, described in detail previously (Lindhagen et al., 2008), is based on measurement of fluorescence generated from hydrolysis of fluorescein diacetate (FDA) to fluorescein by cells with intact plasma membranes. Cells were seeded in the drug-prepared 384-well plates using the pipetting robot Precision 2000 (Bio-Tek Instruments Inc., Winooski, Vt.). The number of cells per well were 2500-5000. Two columns without drugs served as controls and one column with medium only served as blank. The plates were incubated for 72 h and then transferred to an integrated HTS SAIGAN Core System consisting of an ORCA robot (Beckman Coulter) with CO2 incubator (Cytomat 2C, Kendro, Sollentuna, Sweden), dispensor module (Multidrop 384, Titertek, Huntsville, Ala.), washer module (ELx 405, Bio-Tek Instruments Inc), delidding station, plate hotels, barcode reader (Beckman Coulter), liquid handler (Biomek 2000, Beckman Coulter) and a multipurpose reader (FLUOstar Optima, BMG Labtech GmbH, Offenburg, Germany) for automated FMCA. Quality criteria for a successful assay included a mean coefficient of variation of less than 30% in the control and a fluorescence signal in control wells of more than 5 times the blank.
Dose-response data were analyzed using calculated survival index values and the software program GraphPadPrism4 (GraphPad Software Inc., San Diego, Calif., USA). Data was processed using non-linear regression to a standard sigmoidal dose-response model to obtain IC50-values (inhibitory concentration 50%).
In FIG. 2a the response rates for VLX50 at 4 μM for the patient samples are listed according to diagnoses. […] Lung cancer, AML and CML had intermediate response rates. The relative effect of VLX50 and six standard cytotoxic drugs, in solid and hematological tumor samples, expressed as the S/H ratio, is shown in FIG. 2b. […] The results for the standard drugs are consistent with their main clinical use.
With `N[C@@H](Cc1ccc(N(CCCl)CCCl)cc1)C(=O)O` [melphalan] the “Activity in CLL compared with PBMC” value was “significantly higher activity in PBMC than in CLL cells”.
In the case of `Nc1ccn([C@@H]2O[C@H](CO)[C@@H](O)[C@@H]2O)c(=O)n1` [cytarabin], the “Activity in CLL compared with PBMC” value is reported as “significantly higher activity in PBMC than in CLL cells”.
`N.N.[Cl][Pt][Cl]` [cisplatin, reference compound] was tested, and the “Activity in CLL compared with PBMC” value was “No difference”.
In the case of `COc1cc([C@@H]2c3cc4c(cc3[C@@H](O[C@@H]3O[C@@H]5CO[C@@H](C)O[C@H]5[C@H](O)[C@H]3O)[C@H]3COC(=O)[C@H]23)OCO4)cc(OC)c1O` [etoposide], the “Activity in CLL compared with PBMC” value is reported as “No difference”.
In the case of `CC[C@]1(O)C[C@H]2CN(CCc3c([nH]c4ccccc34)[C@@](C(=O)OC)(c3cc4c(cc3OC)N(C=O)[C@H]3[C@@](O)(C(=O)OC)[C@H](OC(C)=O)[C@]5(CC)C=CCN6CC[C@]43[C@@H]65)C2)C1` [vincristine], the “Activity in CLL compared with PBMC” value is reported as “significantly more active in CLL than in PBMC”.
In the case of `COc1cccc2c1C(=O)c1c(O)c3c(c(O)c1C2=O)C[C@@](O)(C(=O)CO)C[C@@H]3O[C@H]1C[C@H](N)[C@H](O)[C@H](C)O1` [doxorubicin], the “Activity in CLL compared with PBMC” value is reported as “No difference”.
